# Results: US6849653B2, “Substituted pyrazolyl benzenesulfamide compounds for the treatment of inflammation” (Pharmacia Corporation, priority 2001, dated 2005)
# Counter-ions that a name gives are not always drawn.
# Biological target: T1, IKK2 (IKKβ), rhIKK2 homodimer (Homo sapiens, UniProt O14920)
# T1 construct: made in house; host or cells: insect cells (baculovirus; SF9)
# T1 sequence (O14920 1-756): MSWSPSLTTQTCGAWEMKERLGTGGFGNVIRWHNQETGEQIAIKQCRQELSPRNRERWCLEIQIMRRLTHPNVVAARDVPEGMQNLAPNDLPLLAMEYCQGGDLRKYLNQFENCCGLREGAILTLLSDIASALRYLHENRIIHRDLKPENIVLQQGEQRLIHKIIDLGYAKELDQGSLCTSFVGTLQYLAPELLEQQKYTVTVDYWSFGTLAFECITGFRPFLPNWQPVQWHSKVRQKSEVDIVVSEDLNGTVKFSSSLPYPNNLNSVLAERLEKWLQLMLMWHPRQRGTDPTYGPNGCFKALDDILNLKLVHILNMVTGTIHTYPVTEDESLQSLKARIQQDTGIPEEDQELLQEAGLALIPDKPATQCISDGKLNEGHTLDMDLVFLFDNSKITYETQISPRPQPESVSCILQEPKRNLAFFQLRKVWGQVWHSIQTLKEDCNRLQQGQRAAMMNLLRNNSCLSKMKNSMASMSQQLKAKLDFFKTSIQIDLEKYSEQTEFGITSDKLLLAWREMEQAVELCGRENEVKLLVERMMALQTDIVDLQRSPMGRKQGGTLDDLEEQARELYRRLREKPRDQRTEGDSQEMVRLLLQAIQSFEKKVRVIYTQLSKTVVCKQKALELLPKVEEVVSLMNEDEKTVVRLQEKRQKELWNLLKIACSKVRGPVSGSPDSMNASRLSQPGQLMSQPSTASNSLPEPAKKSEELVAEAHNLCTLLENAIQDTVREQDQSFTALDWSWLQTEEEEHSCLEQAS
# Experiment: IKKβ (IKK2) Resin Enzyme Assay
# Assay type: biochemical
# Details: Table 2; values given as bins; read-out: IKK2 Resin IC 50
# Description: cDNAs of human IKK1 and IKK2 were amplified by reverse transcriptase-polymerase chain reaction from human placental RNA (Clonetech). hIKK1 was subcloned into pFastBac HTa (Life Technologies) and expressed as N-terminal His6-tagged fusion protein. The hIKK2 cDNA was amplified using a reverse oligonucleotide primer which incorporated the peptide sequence for a FLAG-epitope tag at the C-terminus of the IKK2 coding region (DYKDDDDKD). The hIKK2:FLAG cDNA was subcloned into the baculovirus vector pFastBac. The rhIKK2 ([…]) mutant was constructed in the same vector used for wild type rhIKK2 using a QuikChange™ mutagenesis kit (Stratagene). Viral stocks of each construct were used to infect insect cells grown in 40L suspension culture. […] Cell lysates were stored at −80° C. until purification of the recombinant proteins was undertaken as described below.
# Isolation of rhIKK2 Homodimer
# A 10 liter culture of baculovirus-expressing IKK2 tagged with FLAG peptide was centrifuged and the cell pellet (MOI=0.1 and I=72 hrs) was re-suspended in buffer A. These cells were microfluidized, and centrifuged at 100,000×g for 45 min. Supernatant was passed over a G-25 column equilibrated with Buffer A. Protein peak was collected and incubated with anti-FLAG affinity resin on a rotator overnight in buffer B. The resin was washed in batch with 10-15 bed volumes of buffer C. Washed resin was poured into a column and rhIKK2 homodimer was eluted using 5 bed volumes of buffer B containing FLAG peptide. 5 mM DTT, 0.1% NP-40 and BSA (concentrated to 0.1% in final amount) was added to the eluted enzyme before concentrating in using an Amicon membrane with a molecular weight cut-off of 30 kDa. Enzyme was aliquoted and stored at −80° C.
# IKKβ kinase activity was measured using a biotinylated IκBα peptide (Gly-Leu-Lys-Lys-Glu-Arg-Leu-Leu-Asp-Asp-Arg-His-Asp-Ser32-Gly-Leu-Asp-Ser36-Met-Lys-Asp-Glu-Glu) (American Peptide Co.). […] contained 5 μM biotinylated IκBα peptide, 0.1 μCi/reaction [γ-^33P] ATP (Amersham) (about 1×10^5 cpm), 1 μM ATP (Sigma), 1 mM DTT (Sigma), 2 mM MgCl2 (Sigma), 2 mM MnCl2 (Sigma), 10 mM NaF (Sigma), 25 mM Hepes (Sigma) buffer, pH 7.6 and 20 μl enzyme solution and […] inhibitor in a final volume of 50 μl. After incubation at 25° C. for 30 min, 150 μl resin (Dowex anion-exchange resin AG1X8 200-400 mesh) in 900 mM formate, pH 3.0 was added to each well to stop the reaction. Resin was allowed to settle for one hour and 50 ul of supernatant was removed to a Micolite-2 flat bottom plate (Dynex). 150 μl of scintillation fluid (Microscint 40) (Packard) was added to each well. Incorporation of [γ-^33P] ATP was measured using a Top-Count NXT (Packard).
row,IC50 [µM],SMILES
1,1 to 10,"CS(=O)(=O)c1ccc(-n2nc(C(N)=O)c3ccc4ccc(NC(=O)c5ccccc5F)cc4c32)cc1 [Example 42, 8-[(2-fluorobenzoyl)amino]-1-[4-(methylsulfonyl)phenyl]-1H-benzo[g]indazole-3-carboxamide]"
2,≤ 1,"CS(=O)(=O)c1ccc(-n2nc(C(N)=O)c3ccc4ccc(NC(=O)c5ccccc5Cl)cc4c32)cc1 [Example 37, 8-[(2-chlorobenzoyl)amino]-1-[4-(methylsulfonyl)phenyl]-1H-benzo[g]indazole-3-carboxamide]"
3,≤ 1,"CS(=O)(=O)c1ccc(-n2nc(C(N)=O)c3ccc4ccc(NC(=O)c5cccnc5Cl)cc4c32)cc1 [Example 41, 8-{[(2-chloropyridin-3-yl)carbonyl]amino}-1-[4-(methylsulfonyl)phenyl]-1H-benzo[g]indazole-3-carboxamide]"
4,≤ 1,"Cc1ccccc1C(=O)Nc1ccc2ccc3c(C(N)=O)nn(-c4ccc(S(C)(=O)=O)cc4)c3c2c1 [Example 38, 8-[(2-methylbenzoyl)amino]-1-[4-(methylsulfonyl)phenyl]-1H-benzo[g]indazole-3-carboxamide]"

# Same assay, conditions: Table 3; read-out: IKK2 Resin IC 50
row,IC50 [µM],SMILES
1,1 to 10,"NC(=O)c1nn(-c2ccc(F)cc2)c2c1cc(-c1cccnc1)c1ccc(NC(=O)c3ccncc3Cl)cc12 [Example 45, 8-[(3-chloroisonicotinoyl(amino]-1-(4-fluorophenyl)-5-pyridin-3-yl-1H-benzo[g]indazole-3-carboxamidedihydrochloride]"
2,≤ 1,NC(=O)c1nn(-c2ccc(F)cc2)c2c1cc(Br)c1ccc(NC(=O)c3ccncc3Cl)cc12 [Example 44]
3,≤ 1,"NC(=O)c1nn(-c2ccc(F)cc2)c2c1ccc1ccc(NC(=O)c3ccncc3Cl)cc12 [Example 43, 8-[(3-chloroisonicotinoyl)amino]-1-(4-fluorophenyl)-1H-benzo[g]indazole-3-carboxamide]"
4,≤ 1,"NC(=O)c1nn(-c2ccc(F)cc2F)c2c1ccc1ccc(NC(=O)c3cccnc3Cl)cc12 [Example 52, 8-{[(2-chloropyridin-3-yl)carbonyl]amino}-1-(2,4-difluorophenyl)-1H-benzo[g]indazole-3-carboxamide]"
5,10 to 100,"NC(=O)c1nn(-c2ccc(F)cc2)c2c1ccc1ccc(N)cc12 [Example 46, 8-amino-1-(4-fluorophenyl)-1H-benzo[g]indazole-3-carboxamide]"

# Same assay, conditions: Table 4; values given as bins; read-out: IKK2 Resin IC 50
row,IC50 [µM],SMILES
1,≤ 1,"NC(=O)c1nn(-c2ccc3c(c2)OCO3)c2c1ccc1ccc(NC(=O)c3ccccc3Cl)cc12 [Example 54, 1-(1,3-benzodioxol-5-yl)-8-[(2-chlorobenzoyl)amino]-1H-benzo[g]indazole-3-carboxamide]"
2,≤ 1,"NC(=O)c1nn(-c2ccc3c(c2)OCO3)c2c1ccc1ccc(NC(=O)c3cccnc3Cl)cc12 [Example 55, 1-(1,3-benzodioxol-5-yl)-8-{[(2-chloropyridin-3-yl)carbonyl]amino}-1H-benzo[g]indazole-3-carboxamide]"
3,≤ 1,"NC(=O)c1nn(-c2ccc3c(c2)OCO3)c2c1ccc1ccc(NC(=O)c3ccncc3Cl)cc12 [Example 58, 1-(1,3-benzodioxol-5-yl)-8-[(3-chloroisonicotinoyl)amino]-1H-benzo[g]indazole-3-carboxamide]"
4,1 to 10,"NC(=O)c1nn(-c2ccc3c(c2)OCO3)c2c1ccc1ccc(N)cc12 [Example 56, 8-amino-1-(1,3-benzodioxol-5-yl)-1H-benzo[g]indazole-3-carboxamide]"
